Test results as given in patent US12343326B2, “Psychoactive medicines and their use for treating psychiatric and neurological conditions and disorders” (Transcend Therapeutics, Inc., priority 2021, dated 2025).
“Also recorded” adds a separate entry of the source. Read-outs that look alike come from different tables or passages of the source.

What was measured:
[1] = system: rats (Sprague Dawley; Flinders Sensitive Line); conditions: cited from earlier work
[2] = system: Male Sprague Dawley rats; experiment: Forced Swim Test (FST); type: in vivo, rat
Description: The Forced Swim Test (FST) is a classic, and the most used preclinical behavioral assay to screen compounds with antidepressant-like activity and has high predictive and face validity (Porsolt et al. (1977) Nature 266:730; Borsini and Meli (1988) Psychopharmacology 94:147). The premise of the FST is that when rats are placed into a cylinder filled with water, they will initially try to escape, but over time will become immobile. This increased immobility reflects behavioral despair, modeling a depressive-like state.
Forced Swim Test (FST): In the FST trial, rats were placed in a circular plexiglass container filled with water, with no means of escape. Water temperature was maintained at 22-25° C. and changed for every animal. After an acclimation period, rats were timed for inactivity (failure to struggle), activity, swim time and climbing time. Day 1 consisted of a 15 min acclimation trial, and Day 2 (24 h later) consisted of the 5 min test. A time sampling procedure was employed where animals were observed every 5 sec and scored for immobility, swimming, or climbing. Fluoxetine (10 mg/kg, IP, Sigma Aldrich) or 0.9% sterile saline vehicle (vehicle 3× group) were administered 23.5, 5, and 1 h before testing in the FST. […] The experimenter was blinded to treatment.
Forced Swim Test: In the FST trial, rats were placed in a circular plexiglass container filled with water, with no means of escape. Water temperature was maintained at 22-25° C. and changed for every animal. After an acclimation period, rats were timed for inactivity (failure to struggle), activity, swim time and climbing time. Day 1 consisted of a 15 min acclimation trial, and Day 2 (24 h later) consisted of the 5 min test. A time sampling procedure was employed where animals were observed every 5 sec and scored for immobility, swimming, or climbing. Fluoxetine (10 mg/kg, IP, Sigma Aldrich) or 0.9% sterile saline vehicle (vehicle 3× group) were administered 23.5, 5, and 1 h before testing in the FST. 2C-B (2.5, 10, or 20 mg/kg, IP, Cayman Chemical) or 0.9% saline vehicle (vehicle 1× group) were administered 30 min prior to FST testing. The experimenter was blinded to treatment.
Drug Treatment: Fluoxetine (10 mg/kg, IP, Sigma Aldrich) or 0.9% sterile saline vehicle were administered 23.5, 5, and 1 h before testing in the FST. […] Control animals received fluoxetine alone, methylone alone, or saline vehicle.
Forced Swim Test: In the FST trial, rats were placed in a circular plexiglass container filled with water, with no means of escape. Water temperature was maintained at 22-25° C. and changed for every animal. After an acclimation period, rats were timed for inactivity (failure to struggle), activity, swim time and climbing time. The experimenter and scorer were blind to treatment group. Day 1 consisted of a 15 min acclimation trial, and Day 2 (24 h later) consisted of the 5 min test. A time sampling procedure was employed where animals were observed every 5 sec and scored for immobility, swimming, or climbing.
Control animals received saline vehicle. The dosing schedule and experimental design are found in FIG. 12A.
The FST was performed and scored by an experimenter blind to treatment group according to standard protocols and based on a “modified FST” procedure (Slattery and Cryan (2012) Nat Protoc, 7:1009). Briefly, rats were placed in a circular plexiglass container (29.2 cm diameter, 49.5 cm height) filled with water to a depth of 30 cm so rats could not support themselves by touching the bottom of the tank. Water was maintained at 22-25° C. and was changed for every animal. Day 1 (Training) consisted of a 15 min acclimation trial, and Day 2 (Testing, 24 h later) consisted of the 5 min test. […]

[3] = system: rats with reserpine-induced pain sensitivity; experiment: Reserpine-induced fibromyalgia model, von Frey test; type: in vivo, rat; conditions: 2C-B 10 and 20 mg/kg; duloxetine positive control; 60-min post-injection
Description: Reserpine (1 mg/kg/s.c.) is administered for 3 days to mimic chronic widespread pain and complex symptoms.
In this Example, male Sprague Dawley rats are tested in a behavioral model of FMA based on the protocol from Nakagura et al. (2009) Pain 146:26. This model uses three daily doses of reserpine (1 mg/kg, SC) or 0.5% acetic acid vehicle to reduce pain thresholds (i.e., increase pain perception) in the Von Frey Test (vFT, procedure outlined below).
Von Frey Test (vFT) procedure: Increasing pain thresholds in this test are consistent with a reduction in pain perception. Prior to the start of dosing, rats are tested for their baseline mechanical pain threshold. For von Frey measurements, animals are placed into wire bottom cubicles with opaque Plexiglas walls, allowing access to the underside of their paws. Animals are habituated to this environment for at least 30 minutes before the start of the von Frey filament application. Static allodynia is measured using Semmes-Weinstein von Frey filaments (Stoelting, Wood Dale, IL). Mechanical allodynia is tested by touching the plantar surface of the animals' left and right hind paws with von Frey filaments which deliver a calibrated amount of force. Each von Frey filament is presented perpendicularly to the plantar surface for approximately 6 seconds of constant application in either ascending or descending strength in a modified up-and-down method (Chaplan et al. (1994) J Neurosci. Meth. 53:55). Stimulation is presented at intervals of several seconds, allowing for apparent resolution of any behavioral responses to previous stimuli. A positive response is noted if the paw is sharply withdrawn. Flinching immediately upon removal of the hair is also considered a positive response. […]
VonFrey measurements: Animals were placed into wire bottom cubicles with opaque Plexiglas walls, allowing access to the underside of their paws. […] Static allodynia was measured using Semmes-Weinstein von Frey filaments (Stoelting, Wood Dale, IL). […] The average hindpaw thresholds were determined 60-min post-injection. […]

[4] = system: Male C57Bl/6 mice; experiment: Cisplatin chemotherapy-induced peripheral neuropathy (CIPN) model, von Frey test; type: in vivo, mouse
Description: Cisplatin, a platinum-based chemotherapy agent has been used to reduce pain thresholds in a model of CIPN. Effects of acute (single higher dose) or sub-chronic (7 days repeated lower dose) 2C-B on pain thresholds were investigated in cisplatin-treated animals compared with vehicle or cisplatin-treated controls.
Methods: Male C57Bl/6 mice aged 12-16 weeks were used. Cisplatin (2.5 mg/kg) or vehicle was administered on days 1-5 and 11-15.
Vehicle, sub-chronic 2C-B (5 mg/kg once daily days 17-23) or acute 2C-B (20 mg/kg once on day 17) was then administered IP (N=16-18/group). VonFrey testing took place on day 17 (30 min post-dose) and days 21 and 24 (pre-dose) to monitor the effects of 2C-B in cisplatin treated animals, compared with animals receiving cisplatin+vehicle or vehicle+vehicle.
For von Frey measurements, animals were placed into wire bottom cubicles with opaque Plexiglas walls, allowing access to the underside of their paws. Animals were habituated to this environment for at least 30 minutes before the start of the von Frey filament application. Static allodynia was measured using Semmes-Weinstein von Frey filaments (Stoelting, Wood Dale, IL). Mechanical allodynia was tested by touching the plantar surface of the animals' right and left hind paws with von Frey filaments which deliver a calibrated amount of force (0.07, 0.16, 0.4, 0.6. 1.0, 2.0, 4.0, 6.0 g). […]

[5] = system: experienced drug users; conditions: cited from earlier work
[6] = system: mice; experiment: Mouse fear extinction paradigm (PTSD model); type: in vivo; conditions: MBDB 5 mg/kg IP; day 2
Description: Effective PTSD treatments facilitate the disassociation between a traumatic memory and the patient's fear response, making cues for the traumatic memory evoke less of a fear response. This is modeled in the mouse fear extinction paradigm (see FIG. 9A) which takes place over 3 days. On day 1 (fear conditioning), mice are trained to acquire a “traumatic memory,” namely associating the conditioned stimulus (CS, tone) to the unconditioned stimulus (US, foot shock). On day 2 (extinction training), they are trained to forget the traumatic memory association by presenting the CS 6 times (with no US) in a novel environment. On day 3 (extinction recall), the mice are “asked” if that tone (CS) still elicits a fearful response, as measured by the time spent freezing when the tone is presented. Less time freezing means better extinction recall. Drugs that improve extinction recall reduce freezing time on day 3, and, therefore, show potential as a PTSD treatment.

[7] = system: serotonergic terminals in the cortex and hippocampus; conditions: 25 mg/kg IP every 12 hours for 4 days; 2 weeks post-treatment; cited from earlier work

For CN(C)CCc1c[nH]c2cccc(OP(=O)(O)O)c12 [psilocybin], the “reduction in immobility (FST)” value ([1]; Hibicke et al. (2020)) is listed as 67%.
For CNC1(c2ccccc2Cl)CCCCC1=O (stereo not drawn) [ketamine], the “reduction in immobility (FST)” value ([1]; Hibicke et al. (2020)) is listed as 30%, the “reduction in immobility (FST)” value ([1]; Tizabi et al. (2012)) is listed as 60% and the “reduction in immobility (FST)” value ([1]; Yang et al. (2013)) is listed as 25-55%.
With COc1cc(CCN)c(OC)cc1Br [2C-B, 4-Bromo-2,5-dimethoxyphenethylamine] the “climbing (FST)” value ([2]; 2C-B high-dose group only) was “significantly decreased”, the “swimming (FST)” value ([2]; single dose of 2C-B 30 minutes before testing) was “significant increase in swimming” and the “animals with complete (maximal) reversal of reserpine-induced pain sensitivity” value [3] was 100%. The “effect of repeated doses in CIPN model” value ([4]; repeated doses of 5 mg/kg, once daily days 17-23) was “sustained beneficial effect”, the “pain thresholds (von Frey) in cisplatin-treated animals” value ([4]; within 30 min of a single dose, 5 or 20 mg/kg IP, day 17) was “significantly increased” and the serious adverse effects ([5]; self-administered, dose 10 to 20 mg) was “no serious adverse effects”.
In the case of CNCC[C@H](Oc1cccc2ccccc12)c1cccs1 [duloxetine, reference compound], the “animals with complete (maximal) reversal of reserpine-induced pain sensitivity” value [3] is reported as 44%.
With CCC(Cc1ccc2c(c1)OCO2)NC (racemic) [MBDB, N-methyl-1-(1,3-benzodioxol-5-yl)-2-aminobutane] the “immobility (FST)” value ([2]; MBDB 5-30 mg/kg IP, 30 min before testing) was “significantly reduced immobility”, the “extinction acquisition (freezing, first trial of extinction training)” value [6] was “improved extinction acquisition; also recorded: significantly reduced” and the locomotor activity [6] was “small, but significant increase in locomotor activity”. The “serotonergic terminals in the cortex and hippocampus destroyed” value [7] was 55-60% and the serious adverse effects ([5]; self-administered under supervision, dose 100 to 300 mg) was “no serious adverse effects”.
In the case of CCN(CC)C(=O)[C@@H]1C=C2c3cccc4[nH]cc(c34)C[C@H]2N(C)C1 [LSD, lysergic acid-N,N-diethylamide], the “reduction in immobility (FST)” value ([1]; Hibicke et al. (2020)) is given as 38%.
In the case of CNCCC(Oc1ccc(C(F)(F)F)cc1)c1ccccc1 (stereo not drawn) [fluoxetine, reference compound], the “swimming behavior (FST)” value ([2]; Example 8) is reported as “significantly increased swimming behavior”.
